Data as given in PubChem BioAssay AID549 (SRMLSC, 2006).
The source made the active and inactive calls.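 How the source made its calls: active means clearly stronger inhibition of phosphomevalonate kinase than of the coupling enzymes alone in a parallel counterscreen; inactive means the rest.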

molecular target: phosphomevalonate kinase (Streptococcus pneumoniae D39); assay: phosphomevalonate kinase inhibition IC50 – biochemical, mevalonate pathway, coupling enzyme counter-screen, dose response (AID 549); settings: PMK enzyme, PK/LDH coupled NADH absorbance 340 nm

Row | Compound | outcome
1 | COc1ccc(N2CCN(CCNS(=O)(=O)c3cccc4nsnc34)CC2)cc1 | inactive
2 | O=c1oc2c3c4c(cc2cc1-c1nc2ccccc2[nH]1)CCCN4CCC3 | inactive
3 | CN1C(=O)OC2(C)CCc3ccccc3C12C (stereo not drawn) | inactive
4 | COc1ccc(OC)c(CNC(=O)C2CCCN(c3nc4ccccc4o3)C2)c1 (stereo not drawn) | inactive
5 | N=c1n(CCN2CCOCC2)c2ccccc2n1CC(=O)c1ccc(Cl)c(Cl)c1 | inactive
6 | CCOC(=O)c1ccccc1NCN1C(=O)CSC1=O | inactive
7 | CCOc1ccc(Nc2nc(Cc3nnc(SCC(N)=O)o3)cs2)cc1 | inactive
8 | CCOC(=O)C1=C(C)Nc2ccccc2N=C1NC(=O)CCCN1C(=O)c2ccccc2C1=O | inactive
9 | CC(C)OC(=O)C1C(=O)CC(C)(O)C(C(=O)OC(C)C)C1c1cccnc1 (stereo not drawn) | inactive
10 | CCOC(=O)c1c(NC(=O)c2cc(C3CC3)on2)sc2c1CCCC2 | inactive
11 | COc1ccccc1NC(=O)C1=C(C)NC2=C(C(=O)CCC2)C1c1ccc(C)o1 (stereo not drawn) | inactive
12 | CC(CC(=O)O)NCC1COc2ccccc2O1 (stereo not drawn) | inactive
13 | O=C1CC(c2ccccc2)CC(O)=C1C=NCC1CCCO1 (stereo not drawn) | inactive
14 | CCn1c(SC(=O)NC2CCCCC2)nnc1-c1cccs1 | inactive
15 | COc1cccc(CNC(=O)C2CCCN(c3nn4c(=O)cc(C)nc4s3)C2)c1 (stereo not drawn) | inactive
16 | Cc1nc(SC2C=CS(=O)(=O)C2)n[nH]1 (stereo not drawn) | inactive
17 | O=C(CSCc1cccc(F)c1)N1CCN(c2ccccc2)CC1 | inactive
18 | CC(C)COC(=O)n1ccc(C(=O)N2CCCCC2)n1 | inactive
19 | CN(C)c1ccc(-c2nc3ccccc3n2C)cc1 | inactive
20 | Cn1nc(CC(=O)Nc2ncc(Br)s2)c2ccccc2c1=O | inactive
21 | CC(C)COC(=O)NCC12C=CC(O1)C1C(=O)N(c3ccc(Cl)cc3)C(=O)C12 (stereo not drawn) | inactive
22 | O=C(CSc1cc(Cl)ccc1Cl)NCC1CCCO1 (stereo not drawn) | inactive

Row | Compound | outcome
23 | c1ccc(NC(=NCc2ccco2)c2ccccc2)cc1 | inactive
24 | CC(=O)Nc1c(O)n(C)c2ccccc12 | inactive
25 | CCOC(=O)N1CCC(NC(=O)CSc2cc(=O)n(C)c3ccccc23)CC1 | inactive
26 | Cc1cc(C)n2nc(SCC(=O)NCc3ccco3)nc2n1 | inactive
27 | CCOC(=O)c1[nH]nc(C(=O)c2ccc(Br)cc2)c1O | inactive
28 | O=c1c[n+]([O-])c2ccccc2n1OCc1c(F)cccc1F | inactive
29 | CS(=O)(=O)N(CC(=O)N1CCN(c2ccccc2)CC1)C1CCCCC1 | inactive
30 | Cc1ccccc1OCCCCc1c(C)n[nH]c1C | inactive
31 | CCCC(=O)Nc1cccc(NC(=O)CN2CCN(c3ccccc3OC)CC2)c1 | inactive
32 | Cc1ccc(C(c2nnnn2CC2CCCO2)N2CCN(C(=O)c3ccco3)CC2)cc1 (stereo not drawn) | inactive
33 | Cn1c(SCC(=O)NCc2ccco2)nc2ccccc2c1=O | inactive
34 | CC(Sc1ncc(C#N)c(N)n1)C(=O)Nc1ccccc1 (stereo not drawn) | inactive
35 | CC1(C)CC(C)(O)P(=O)(c2ccccc2)O1 (stereo not drawn) | inactive
36 | Cc1ccc(S(=O)(=O)N2CCN(c3nc(C(C)C)c4c(c3C#N)CC(C)(C)OC4)CC2)cc1 | inactive
37 | O=C(Cn1cc(C(F)(F)F)ccc1=O)N1CCN(S(=O)(=O)c2ccccc2)CC1 | inactive
38 | COC(=O)[C@@H](NC(=O)N1CCN(c2cccc(C(F)(F)F)c2)CC1)C(C)C | inactive
39 | COCCNC(=O)C1CCCN(c2nn3c(=O)cc(C)nc3s2)C1 (stereo not drawn) | inactive
40 | CCOc1ccc2[nH]c(=O)c(CN(CCO)C(=O)c3ccc(Br)cc3)cc2c1 | inactive
41 | COc1ccc2c(c1)OC1(C)CC2C(C(=O)c2ccccc2OC)C(=O)N1 (stereo not drawn) | inactive
42 | Cc1cc(C)n2c(SCC(=O)N(C)C3CCS(=O)(=O)C3)nnc2n1 (stereo not drawn) | inactive
43 | CCCCNc1nc2c(c(=O)n(C)c(=O)n2C)n1CCC | inactive
44 | Cc1csc(C(C#N)C(=O)c2ccc(S(=O)(=O)N3CCCC3)cc2)n1 (stereo not drawn) | inactive

Row | Compound | outcome
45 | CCN1C(=O)/C(=C2/Sc3ccc(OC)cc3N2C)SC1=Nc1ccc(C(C)=O)cc1 | inactive
46 | CC(C)(C)NC(=O)CSc1ncnc2c1nnn2Cc1ccccc1Cl | inactive
47 | O=C(c1ccc2ccccc2c1)N1CCN(c2ccc(O)cc2)CC1 | inactive
48 | COC(=O)CNc1nc(-c2ccccc2F)nc2ccccc12 | inactive
49 | CCCOc1ccc(C2C(=O)N(C3CCCCC3)CC(=O)N2CCCOCC)cc1OC (stereo not drawn) | inactive
50 | COc1ccc(NC2CC(=O)NC2=O)cc1 (stereo not drawn) | inactive
51 | CCOC(=O)CNC(=O)Nc1nnc(-c2ccc(OCC)cc2)o1 | inactive
52 | Cc1cc(=O)n2[nH]c(-c3ccccc3Cl)cc2n1 | inactive
53 | CCN1CCN(C(c2ccc(F)cc2)c2nnnn2Cc2cccs2)CC1 (stereo not drawn) | inactive
54 | CC(=O)N1CCC(N2CCN(c3ccccc3F)CC2)CC1 | inactive
55 | COc1ccc(S(=O)(=O)Nc2nnc(C)s2)cc1 | inactive
56 | CC(=O)c1ccc(N2CCN(c3ccc(C(F)(F)F)cn3)CC2)cc1 | inactive
57 | O=c1c(-c2ccccc2)c(O)c2cccc3c2n1CCC3 | inactive
58 | COC(=O)C1=C(C)OC(N)=C(C#N)C1c1cc(OC)c(OCC(N)=O)cc1Cl (stereo not drawn) | inactive
59 | O=C(NCc1ccccc1)C1C2C=CC3(CN(Cc4cccnc4)C(=O)C13)O2 (stereo not drawn) | inactive
60 | COCCNC(=O)c1ccc2c(c1)NC(=O)CS2 | inactive
61 | COc1cc2[nH]c(=O)n(CCC(=O)NC3CCN(Cc4ccccc4)CC3)c(=O)c2cc1OC | inactive
62 | Cc1ccsc1C1C(C(=O)O)c2ccccc2C(=O)N1C (stereo not drawn) | inactive
63 | O=C(NCCCNC(=O)c1ccccn1)c1ccccn1 | inactive
64 | COc1ccc(OC)c(NC(=O)CNC(=O)Cn2ccc3ccccc3c2=O)c1 | inactive
65 | COCCCNC(=O)C1C2C=CC3(CN(Cc4ccc(C)cc4)C(=O)C13)O2 (stereo not drawn) | inactive
66 | Cc1sc2ncnc(NCC(c3ccco3)N(C)C)c2c1C (stereo not drawn) | inactive

Row | Compound | outcome
67 | Cc1csc(NC(=O)CN2CCCCCC2)n1 | inactive
68 | CC(=O)c1ccc(Oc2ncnc3sccc23)c(CN2CCOCC2)c1 | inactive
69 | CCN(CC)CCSc1nc(O)c(C(C)C)c(=O)[nH]1 | inactive
70 | OC1(CN2CCOCC2)C2CN3CCN(C2)CC1(c1ccccc1)C3 (stereo not drawn) | inactive
71 | COc1ccc2c(c1OC)C(=O)OC2C1c2c(cc3c(c2OC)OCO3)CCN1C (stereo not drawn) | inactive
72 | Cc1cccc2cc(CN(CCN3CCCC3)C(=O)NC3CCCCC3)c(=O)[nH]c12 | inactive
73 | Cc1ccc(-n2nc3c(c2NC(=O)c2c(-c4ccccc4Cl)noc2C)CS(=O)(=O)C3)c(C)c1 | inactive
74 | O=C(Cc1cn2ccsc2n1)OCc1nc2ccccc2s1 | inactive
75 | COc1cc2nc(C3CCC3)n(NC(=O)C3CCCC(OC)C3)c(=O)c2cc1OC (stereo not drawn) | inactive
76 | CS(=O)(=O)N1CCN(C(=O)CCC2CCCC2)CC1 | inactive
77 | CC(C)OC(=O)c1cccnc1SCc1cc(=O)n2ccccc2n1 | inactive
78 | Cc1ccc(-n2c(CSc3nc(C)cc(C)n3)nnc2SCC(=O)NCc2ccco2)cc1 | inactive
79 | CCOc1ccc(-c2nnc(SCC(=O)N3CCN(c4ccccc4)CC3)o2)cc1 | inactive
80 | COc1ccc(C(=O)Nc2cccc3c2C(=O)NC3=O)cc1S(=O)(=O)N1CCOCC1 | inactive
81 | Cc1ccc(C)c(N(CC(=O)NC2CCCC2)C(=O)CCCC(=O)Nc2ccccn2)c1 | inactive
82 | O=c1cc(O)c2c(=O)[nH]c(=O)n(-c3ccccc3)c2[nH]1 | inactive
83 | CCOCCCNC(=O)C1CCN(S(=O)(=O)N(CC(C)C)CC(C)C)CC1 | inactive
84 | CCOc1ccccc1C(=O)NCC(=O)OCC(=O)c1ccc2c(c1)OCCO2 | inactive
85 | O=C(NCc1cccs1)C1CCCN(c2nc3ccccc3o2)C1 (stereo not drawn) | inactive
86 | COc1ccccc1-n1c(SCC(=O)N2CCCCC2)nnc1-c1ccccc1O | inactive
87 | CCc1ccc(OCc2nnc(SCC(=O)NCc3ccco3)o2)cc1 | inactive
88 | CC(C)=CC(=O)Nc1ccc(Br)cc1 | inactive

Row | Compound | outcome
89 | O=C(COC(=O)c1ccco1)NC1CCCCC1 | inactive
90 | O=C(Nc1ccc(-c2noc(COc3ccccc3Cl)n2)cc1)c1ccco1 | inactive
91 | CC(=O)NC1N=C(C)N(c2ccccc2)C1=O (stereo not drawn) | inactive
92 | N#CC(C(=O)NC1CCCCC1)c1nc2ccccc2nc1N1CCCCC1 (stereo not drawn) | inactive
93 | Clc1ccc(C(c2nnnn2C2CCCC2)N2CCN(Cc3ccncc3)CC2)cc1 (stereo not drawn) | inactive
94 | Cc1n[nH]c(C)c1N1C(=O)c2cccc3c(N4CCCCCC4)ccc(c23)C1=O | inactive
95 | COc1ccc(C2C(=O)N(C3CCCCC3)CC(=O)N2CCc2ccccc2)cc1OC (stereo not drawn) | inactive
96 | O=C(NCC1CCCO1)C1CC(=O)N(C2CCCCCC2)C1 (stereo not drawn) | inactive
97 | CCC1Oc2ccc(C)cc2N(CC(=O)NCCN2CCCCCC2)C1=O (stereo not drawn) | inactive
98 | O=C(CNC(=O)c1cccs1)NCCN1CCN(c2ccccc2F)CC1 | inactive
99 | COc1ccc2[nH]cc(C(=O)CN3CCCC(C)C3)c2c1 (stereo not drawn) | inactive
100 | Cc1noc(C)c1CSc1nnc(-c2ccncc2)n1-c1cccc(Cl)c1C | inactive
101 | Cn1c(=O)c2c(nc(N3CCOCC3)n2C)n(C)c1=O | inactive
102 | CCC(C)(C)n1nnnc1C(c1cccnc1)N1CCCc2ccccc21 (stereo not drawn) | inactive
103 | Cc1c2c(nc3c(C(=O)NC4CCCCC4C)cnn13)CCCC2 (stereo not drawn) | inactive
104 | COc1ccc(C2(C)NC(=O)N(Cc3cc(Cl)cc4c3OCOC4)C2=O)cc1OC (stereo not drawn) | inactive
105 | CCOc1cc(N2CCOCC2)c(OCC)cc1NC(=O)Cc1ccc(OC)c(OC)c1 | inactive
106 | O=C(NCCCN1CCN(Cc2ccccc2)CC1)C1CCN(S(=O)(=O)N2CCCC2)CC1 | inactive
107 | Cc1c2cnn(CC(=O)N3CCC4(CC3)OCCO4)c(=O)c2c(C)n1Cc1ccc(F)cc1 | inactive
108 | CCCCS(=O)(=O)C(=C1Nc2ccccc2N1)S(=O)(=O)CCCC | inactive
